Here are results for nine compounds from patent US20250154198A1, “PEPTIDE INHIBITORS OF INTERLEUKIN-23 RECEPTOR” (Zealand Pharma A/S, priority 2021, published 2025).

pKi: −log10 of the molar value. *1 amine or outer side, *2 acyl side, *3 side chain or, on linkers, in order; H or OH if unused. Where a SMILES comes first, the peptide text is derived from it. Bridges are numbered along the chain shown (N, C = ends). [ ]: non-standard residue; d: D form. αMeAla(3-pyridyl) = C[C@](N)(Cc1cccnc1)C(=O)O; X10 = C[C@@](Cc1ccc(F)cc1)(N[*:1])C(=O)[*:2]; Trp(1-Me) = Cn1cc(C[C@H](N)C(=O)O)c2ccccc21; Phe(3,4-Me2) = Cc1ccc(C[C@H](N)C(=O)O)cc1C; 2Nal = N[C@@H](Cc1ccc2ccccc2c1)C(=O)O; AEF = NCCOc1ccc(C[C@H](N)C(=O)O)cc1; X1 = O=C(Cc1ccc(CN[*:1])cc1)[*:2]; αMeR = C[C@](N)(CCCNC(=N)N)C(=O)O; αMeL = CC(C)C[C@](C)(N)C(=O)O; CH2COCH2 = O=C(C[*:1])C[*:2]; αMeV = CC(C)[C@](C)(N)C(=O)O; 3Amb = NCc1cccc(C(=O)O)c1; Dab = NCC[C@H](N)C(=O)O

Data set [1] is described as follows: Peptide stability in simulated intestinal fluid (SIF). It counts as in vitro ADME. Particulars: pig, Table 3-2, porcine pancreatin, pH 6.8, 37° C., 10 μM; for remaining at 1 h, 10 μM: read-out: SIF (% remaining 1 h); for remaining at 4 h, 10 μM: read-out: SIF (% remaining 4 h). An outline of the steps:
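Peptides incubated at 37°C with gentle shaking in SGF (NaCl, HCl, pH 1.2) or SIF (phosphate pH 6.8 with 10 g/L porcine pancreatin). Samples analysed by LC-HRMS; percent remaining at each timepoint calculated from absolute peak areas relative to time zero.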

The nature of data set [2]: Peptide stability in simulated gastric fluid (SGF). In kind it is in vitro ADME. Particulars: Table 3-3, porcine pepsin, pH 1.2, 37° C., 10 μM; for remaining at 1 h, 10 μM / remaining at 4 h, 10 μM: pig; for remaining at 1 h, 10 μM: read-out: SGF (% remaining 1 h); for remaining at 4 h, 10 μM: read-out: SGF (% remaining 4 h). As for the experimental part: Determination of Peptide Stability in Simulated Gastric Fluid (SGF) and Simulated Intestinal Fluid (SIF)
SGF was prepared by dissolving sodium chloride (0.2 g) in 50 mL of water. A volume of 0.7 mL of 10 M HCl was added to adjust the pH of the solution to 1.2 and the volume made up to 100 mL with water. […] SIF was prepared by dissolving monobasic potassium phosphate (0.68 g) in 50 mL of water and adjusting the pH to 6.8 with 1 M NaOH. The volume was subsequently made up to 100 mL with water. 200 mg porcine pancreatin (P1625, Sigma Aldrich) was gently dissolved into 20 mL preheated (37° C.) solution (10 g/L) immediately prior to the incubation.
The incubation was performed at 37° C. with gentle shaking. […] After the last timepoint, the sampling plate was mixed for 10 min on a shaking table and centrifuged 10 min at 2200 g. 70 μL resulting supernatant was diluted with 150 μL water, mixed and centrifugated before analysis by liquid chromatography high resolution mass spectrometry. […] Percent remaining at each timepoint was calculated relative to timepoint zero based on absolute peak areas.

Another data set has as its target T1, human IL-23R (Homo sapiens, UniProt Q5VWK5).
T1 construct: UniProtKB—Q5VWK5, amino acids 22-629; secretion signal of the plasmid (Promega N1371); expressed in transfected cells
T1 sequence (Q5VWK5 22-629): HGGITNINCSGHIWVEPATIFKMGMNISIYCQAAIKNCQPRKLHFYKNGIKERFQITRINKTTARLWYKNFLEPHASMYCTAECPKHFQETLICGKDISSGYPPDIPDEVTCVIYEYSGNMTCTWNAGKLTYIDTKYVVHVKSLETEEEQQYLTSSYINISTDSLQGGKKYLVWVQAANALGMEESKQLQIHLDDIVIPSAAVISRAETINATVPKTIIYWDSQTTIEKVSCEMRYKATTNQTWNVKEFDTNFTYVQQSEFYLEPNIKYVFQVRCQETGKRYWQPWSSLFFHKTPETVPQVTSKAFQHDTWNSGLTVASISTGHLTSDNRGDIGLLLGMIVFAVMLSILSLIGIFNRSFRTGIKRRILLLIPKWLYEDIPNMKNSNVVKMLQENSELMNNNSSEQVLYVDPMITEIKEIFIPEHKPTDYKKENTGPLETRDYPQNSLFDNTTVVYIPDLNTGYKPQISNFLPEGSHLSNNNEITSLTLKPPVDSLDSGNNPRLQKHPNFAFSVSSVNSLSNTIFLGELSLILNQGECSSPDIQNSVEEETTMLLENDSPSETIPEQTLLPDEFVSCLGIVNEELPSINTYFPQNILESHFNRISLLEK
Kind of data set: Binding assay (NanoBRET displacement of fluorophore-labelled reference compound) for estimating binding affinity to human IL-23R. Particulars: Table 3-1; read-out: Ki hIL-23R.

The mark [3] stands for this setting: simulated intestinal fluid (SIF) with porcine pancreatin.
[4] abbreviates: simulated gastric fluid (SGF) with porcine pepsin.
Setting [5] is: simulated gastric fluid (SGF) with porcine pepsin, 4 h.

In the case of `CC(C)C[C@]1(C)NC(=O)[C@H](Cc2c[nH]c3ccccc23)NC(=O)[C@H](Cc2c[nH]c3ccccc23)NC(=O)[C@@H]2CSCC(=O)CSC[C@H](NC(=O)[C@H](CO)NC(=O)[C@@H](NC(=O)[C@@H](N)CC(=O)O)CSCC(=O)CSC[C@@H](C(=O)N[C@@H](CCCNC(=N)N)C(N)=O)NC1=O)C(=O)N[C@@H](Cc1c[nH]c3ccccc13)C(=O)N[C@@H](CCC(N)=O)C(=O)N2` [Compound 1, H-DC(1a)SC(2a)WQC(2a)WW[2-Me-Leu]C(1a)R-[NH2]], the fraction remaining at 1 h, 10 μM in data set [1] is 0%; in data set [2] it was 86%. For the same compound, the figures for the amount remaining at 4 h, 10 μM in data set [1] and in data set [2] (4 h) were 0% and 68%, respectively.

As to `CC(=O)N[C@H]1CCCCNC(=O)CC[C@@H](C(=O)N[C@@H](CCCNC(=N)N)C(N)=O)NC(=O)[C@H](CC(C)C)NC(=O)[C@H](Cc2ccc3ccccc3c2)NC(=O)[C@H](Cc2c[nH]c3ccccc23)NC(=O)[C@@H]2CSCC(=O)CSC[C@H](NC(=O)[C@H](CO)NC1=O)C(=O)N[C@@H](Cc1cn(C)c3ccccc13)C(=O)N[C@@H](CCC(N)=O)C(=O)N2` [Compound 27, [Ac]-K(1c)SC(2a)[1-Me-Trp]QC(2a)W[2-Nal]LE(1c)R-[NH2]] (Ac-KSC[Trp(1-Me)]QCW[2Nal]LER-NH2; lactam 1-10; linker 3-6 via CH2COCH2), the fraction remaining at 1 h, 10 μM in data set [1] (setting [3]) and in data set [2] (setting [4]) was 0% each time. The share remaining at 4 h, 10 μM in data set [1] (setting [3]) and in data set [2] (setting [5]) was 0% in each case.

Turning to `CC(C)C[C@]1(C)NC(=O)[C@H](Cc2ccc3ccccc3c2)NC(=O)[C@H](Cc2ccc(OCCN)cc2)NC(=O)[C@@H]2CSCC(=O)CSC[C@H](NC(=O)[C@H](CO)NC(=O)c3cccc(c3)CNC(=O)CC[C@@H](C(=O)N[C@@](C)(CCCNC(=N)N)C(N)=O)NC1=O)C(=O)N[C@@H](Cc1c[nH]c3ccccc13)C(=O)N[C@@H](CCC(N)=O)C(=O)N2` [Compound 42, [(3-Aminomethyl)benzoyl](1c)*SC(2a)WQC(2a)[Y(2-aminoethoxy)][2-Nal][2-Me-Leu]E(1c)[2-Me-Arg]-[NH2]] ([3Amb]SCWQC[AEF][2Nal][αMeL]E[αMeR]-NH2; linker 3-6 via CH2COCH2; lactam N-10), the negative-log Ki (pKi) (in general, −log10 of the Ki, conventionally taken in molar units) on human IL-23R was 8.56. In data set [2] (setting [4]), the amount remaining at 1 h, 10 μM was 90%.

As for `CC(=O)N[C@@H](CC(=O)O)C(=O)N[C@H]1CCC(=O)NCCCC[C@@H](C(=O)N[C@@H](CCCNC(=N)N)C(N)=O)NC(=O)[C@](C)(CC(C)C)NC(=O)[C@H](Cc2ccc3ccccc3c2)NC(=O)[C@H](Cc2c[nH]c3ccccc23)NC(=O)[C@@H]2CSCC(=O)CSC[C@H](NC(=O)[C@H]([C@@H](C)O)NC1=O)C(=O)N[C@@H](Cc1c[nH]c3ccccc13)C(=O)N[C@@H](CCC(N)=O)C(=O)N2` [Compound 57, [Ac]-DE(1c)TC(2a)WQC(2a)W[2-Nal][2-Me-Leu]K(1c)R-[NH2]] (Ac-DETCWQCW[2Nal][αMeL]KR-NH2; lactam 2-11; linker 4-7 via CH2COCH2), the amount remaining at 1 h, 10 μM in data set [1] (setting [3]) was 7%; in data set [2] (setting [4]), 21%. The results for the share remaining at 4 h, 10 μM in data set [1] (setting [3]) and in data set [2] (setting [5]) were 0% and 1%, respectively.

For `CC(=O)N[C@@H](CC(=O)O)C(=O)N[C@H]1CCC(=O)NCCCC[C@@H](C(=O)N[C@@H](CCC(=O)O)C(=O)N[C@@H](CC(N)=O)C(=O)NCC(N)=O)NC(=O)[C@](C)(CC(C)C)NC(=O)[C@H](Cc2ccc3ccccc3c2)NC(=O)[C@H](Cc2c[nH]c3ccccc23)NC(=O)[C@@H]2CSCC(=O)CSC[C@H](NC(=O)[C@H](CO)NC1=O)C(=O)N[C@@H](Cc1c[nH]c3ccccc13)C(=O)N[C@@H](CCC(N)=O)C(=O)N2` [Compound 58, [Ac]-DE(1c)SC(2a)WQC(2a)W[2-Nal][2-Me-Leu]K(1c)ENG-[NH2]] (Ac-DESCWQCW[2Nal][αMeL]KENG-NH2; lactam 2-11; linker 4-7 via CH2COCH2), the amount remaining at 1 h, 10 μM in data set [1] (setting [3]) is 80%; in data set [2] (setting [4]) it was 61%. In addition, the values for the fraction remaining at 4 h, 10 μM in data set [1] (setting [3]) and in data set [2] (setting [5]) were 45% and 8%, respectively.

As for `CC(=O)N[C@@H](CC(=O)O)C(=O)N[C@H]1CCC(=O)NCCCC[C@@H](C(=O)NCC(N)=O)NC(=O)[C@](C)(CC(C)C)NC(=O)[C@H](Cc2ccc3ccccc3c2)NC(=O)[C@H](Cc2c[nH]c3ccccc23)NC(=O)[C@@H]2CSCC(=O)CSC[C@H](NC(=O)[C@H](CO)NC1=O)C(=O)N[C@@H](Cc1c[nH]c3ccccc13)C(=O)N[C@@H](CCC(N)=O)C(=O)N2` [Compound 60, [Ac]-DE(1c)SC(2a)WQC(2a)W[2-Nal][2-Me-Leu]K(1c)G-[NH2]] (Ac-DESCWQCW[2Nal][αMeL]KG-NH2; lactam 2-11; linker 4-7 via CH2COCH2), the share remaining at 1 h, 10 μM is 69% in data set [1] (setting [3]) and 7% in data set [2] (setting [4]). The amount remaining at 4 h, 10 μM in data set [1] (setting [3]) was 12%; in data set [2] (setting [5]) it was 0%.

`CC(C)C[C@]1(C)NC(=O)[C@H](Cc2ccc3ccccc3c2)NC(=O)[C@H](Cc2ccccc2)NC(=O)[C@@H]2CCNC(=O)CC[C@H](NC(=O)[C@H](CO)NC(=O)Cc3ccc(cc3)CNC(=O)CC[C@@H](C(=O)N[C@@H](CCN)C(N)=O)NC1=O)C(=O)N[C@@H](Cc1c[nH]c3ccccc13)C(=O)N[C@@H](CCC(N)=O)C(=O)N2` [Compound 130, [4-Aminomethyl-phenylacetyl](1c)*SE(2c)WQ[Dab](2c)F[2-Nal][2-Me-Leu]E(1c)[Dab]-[NH2]] ([X1]SEWQ[Dab]F[2Nal][αMeL]E[Dab]-NH2; lactam 3-6, N-10): the figures for the amount remaining at 1 h, 10 μM in data set [1] (setting [3]) and in data set [2] (setting [4]) were 1% and 59%, respectively. The results for the share remaining at 4 h, 10 μM in data set [1] (setting [3]) and in data set [2] (setting [5]) were 0% and 14%, respectively.

Regarding `CC[C@H](C)[C@@H]1NC(=O)Cc2ccc(cc2)CNC(=O)CC[C@@H](C(=O)N[C@@H](CCN)C(=O)N[C@@](C)(Cc2cccnc2)C(N)=O)NC(=O)[C@](C)(C(C)C)NC(=O)[C@H](Cc2ccc(C)c(C)c2)NC(=O)[C@H](Cc2ccc(OCCN)cc2)NC(=O)[C@@H]2CCNC(=O)CC[C@H](NC1=O)C(=O)N[C@@H](Cc1c[nH]c3ccccc13)C(=O)N[C@@H](CCC(N)=O)C(=O)N2` [Compound 165, [4-Aminomethyl-phenylacetyl](1c)*IE(2c)WQ[Dab](2c)[Y(2-aminoethoxy)][F(3,4-Me)][2-Me-Val]E(1c)[Dab][2-Me-3-(3-Pyridyl)-Ala]-[NH2]] ([X1]IEWQ[Dab][AEF][Phe(3,4-Me2)][αMeV]E[Dab][αMeAla(3-pyridyl)]-NH2; lactam 3-6, N-10), the share remaining at 4 h, 10 μM in data set [1] (setting [3]) and in data set [2] (setting [5]) was 109% in each case.

With `CC[C@H](C)[C@@H]1NC(=O)Cc2ccc(cc2)CNC(=O)CC[C@@H](C(=O)N[C@@H](CCN)C(=O)N[C@@](C)(Cc2cccnc2)C(N)=O)NC(=O)[C@](C)(C(C)C)NC(=O)[C@H](Cc2ccc(C)c(C)c2)NC(=O)[C@](C)(Cc2ccc(F)cc2)NC(=O)[C@@H]2CCNC(=O)CC[C@H](NC1=O)C(=O)N[C@@H](Cc1c[nH]c3ccccc13)C(=O)N[C@@H](CCC(N)=O)C(=O)N2` [Compound 169, [4-Aminomethyl-phenylacetyl](1c)*IE(2c)WQ[Dab](2c)[2-Me-F(4-F)][F(3,4-Me)][2-Me-Val]E(1c)[Dab][2-Me-3-(3-Pyridyl)-Ala]-[NH2]] ([X1]IEWQ[Dab][X10][Phe(3,4-Me2)][αMeV]E[Dab][αMeAla(3-pyridyl)]-NH2; lactam 3-6, N-10), the amount remaining at 4 h, 10 μM in data set [1] (setting [3]) is 72%. Moreover, in data set [2] (4 h), the “SGF (% remaining 4 h)” value was 121%.
